Measurements taken from patent publication US12459974B2, “Bicyclic peptide ligands specific for Nectin-4” (priority 2018, dated 2025).
Where two headings read alike, the source gives them in different places. *1 amine or outer side, *2 acyl side, *3 side chain or, on linkers, in order; H or OH if unused. Where a SMILES comes first, the peptide text is derived from it. Bridges are numbered along the chain shown (N, C = ends). Roman numbers before positions name the chains, in order. [ ]: non-standard residue; d: D form. The star is where a group is joined. TATA = O=C(CC[*:1])N1CN(C(=O)CC[*:2])CN(C(=O)CC[*:3])C1; Dolaproine = CO[C@@H]([C@@H]1CCCN1)[C@@H](C)C(=O)O; Dil = CC[C@H](C)[C@H](NC)[C@@H](CC(=O)O)OC; 1Nal = N[C@@H](Cc1cccc2ccccc12)C(=O)O; X3 = O=C(CCCC(=O)[*:2])NCCC(=O)[*:1]; PABC = O=C(OCc1ccc(N[*:1])cc1)[*:2]; X4 = C[C@@H](N*)[C@@H](O)c1ccccc1; Cya = N[C@@H](CS(=O)(=O)O)C(=O)O; Hyp = O=C(O)[C@@H]1C[C@@H](O)CN1; hArg = N=C(N)NCCCC[C@H](N)C(=O)O; Cit = NC(=O)NCCC[C@H](N)C(=O)O; NMeV = CN[C@H](C(=O)O)C(C)C; βAla = NCCC(=O)O; Sar = CNCC(=O)O

What was measured:
human Nectin-4 [1] = molecular target: T1, human Nectin-4 (Homo sapiens, UniProt Q96NY8); assay: Nectin-4 competition binding assay (fluorescence polarisation); details: competition with fluorescent peptide SEQ ID NO: 217; read-out: Ki
T1 sequence (Q96NY8 32-510): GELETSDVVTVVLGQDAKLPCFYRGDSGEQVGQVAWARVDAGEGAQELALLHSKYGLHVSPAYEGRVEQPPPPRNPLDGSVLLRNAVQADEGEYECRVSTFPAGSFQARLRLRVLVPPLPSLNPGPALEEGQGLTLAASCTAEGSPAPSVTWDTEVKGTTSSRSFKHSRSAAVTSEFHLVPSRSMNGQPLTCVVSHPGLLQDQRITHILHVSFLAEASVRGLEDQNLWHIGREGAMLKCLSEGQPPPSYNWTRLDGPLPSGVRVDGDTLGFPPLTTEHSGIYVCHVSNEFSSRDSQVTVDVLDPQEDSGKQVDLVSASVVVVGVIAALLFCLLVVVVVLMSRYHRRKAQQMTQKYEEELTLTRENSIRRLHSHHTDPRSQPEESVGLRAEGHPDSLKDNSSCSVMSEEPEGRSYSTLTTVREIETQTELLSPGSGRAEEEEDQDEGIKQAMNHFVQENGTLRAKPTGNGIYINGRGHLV
Procedure, shortened: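 Ki derived by cubic-equation fit of mP data, with tracer peptide concentration, its Kd and Nectin-4 level as fixed inputs. Competition set up by adding 2-fold peptide dilutions (≤5% DMSO), then Nectin-4, then fluorescent peptide; polarisation measured as for direct binding.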

human Nectin-4 [2] = molecular target: T2, human Nectin-4 (Homo sapiens, UniProt Q96NY8); assay: Nectin-4 Biacore SPR binding assay
T2 sequence (Q96NY8 32-349): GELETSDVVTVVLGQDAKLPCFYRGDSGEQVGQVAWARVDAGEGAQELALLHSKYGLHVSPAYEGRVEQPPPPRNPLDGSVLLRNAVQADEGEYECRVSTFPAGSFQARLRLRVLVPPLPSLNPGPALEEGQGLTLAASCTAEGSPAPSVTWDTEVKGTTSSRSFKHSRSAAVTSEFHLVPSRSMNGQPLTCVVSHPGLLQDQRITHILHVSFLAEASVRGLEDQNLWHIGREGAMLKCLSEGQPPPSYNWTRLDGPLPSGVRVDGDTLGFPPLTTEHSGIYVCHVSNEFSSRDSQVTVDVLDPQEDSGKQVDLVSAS
Experimental: Biacore experiments were performed to determine ka (M^−1 s^−1), kd (s^−1), KD (nM) values of monomeric peptides binding to human Necin-4 protein (obtained from Charles River).
Human Nectin-4 (residues Gly32-Ser349; NCBI RefSeq: NP_112178.2) with a gp67 signal sequence and C-terminal FLAG tag was cloned into pFastbac-1 and baculovirus made using standard Bac-to-Bac™ protocols (Life Technologies). Sf21 cells at 1×10^6 ml^−1 in Excell-420 medium (Sigma) at 27° C. were infected at an MOI of 2 with a P1 virus stock and the supernatant harvested at 72 hours. […] The protein was eluted with 100 μg/ml FLAG peptide. The eluted protein was concentrated to 2 ml and loaded onto an S-200 Superdex column (GE Healthcare) in PBS at 1 ml/min. 2 ml fractions were collected and the fractions containing Nectin-4 protein were concentrated to 16 mg/ml.
The protein was extensively desalted to remove uncoupled biotin using spin columns into PBS.
For analysis of peptide binding, a Biacore 3000 instrument was used utilising a CM5 chip (GE Healthcare). Streptavidin was immobilized on the chip using standard amine-coupling chemistry at 25° C. with HBS-N (10 mM HEPES, 0.15 M NaCl, pH 7.4) as the running buffer. Briefly, the carboxymethyl dextran surface was activated with a 7 minute injection of a 1:1 ratio of 0.4 M 1-ethyl-3-(3-dimethylaminopropyl) carbodiimide hydrochloride (EDC)/0.1 M N-hydroxy succinimide (NHS) at a flow rate of 10 μl/min. For capture of streptavidin, the protein was diluted to 0.2 mg/ml in 10 mM sodium acetate (pH 4.5) and captured by injecting 120 μl of streptavidin onto the activated chip surface. Residual activated groups were blocked with a 7 minute injection of 1 M ethanolamine (pH 8.5) and biotinylated Nectin-4 captured to a level of 1,200-1,800 RU. Buffer was changed to PBS/0.05% Tween 20 and a dilution series of the peptides was prepared in this buffer with a final DMSO concentration of 0.5%. The top peptide concentration was 100 nM with 6 further 2-fold dilutions. The SPR analysis was run at 25° C. at a flow rate of 50 μl/min with 60 seconds association and dissociation between 400 and 1,200 seconds depending upon the individual peptide. Data were corrected for DMSO excluded volume effects. All data were double-referenced for blank injections and reference surface using standard processing procedures and data processing and kinetic fitting were performed using Scrubber software, version 2.0c (BioLogic Software). Data were fitted using simple 1:1 binding model allowing for mass transport effects where appropriate.

NCI-H292 xenograft [3] = assay: Example 9.5: in vivo efficacy in NCI-H292 xenograft in Balb/c nude mice; design: species or system Mus Musculus; details: 5 mg/kg; day 9; average
MDA-MB-468 xenograft [4] = assay: Example 4: in vivo efficacy in MDA-MB-468 xenograft (breast cancer model) in Balb/c nude mice; design: species or system Mus Musculus; details: 5 mg/kg
NCI-H292 xenograft [5] = assay: Example 1: in vivo efficacy in NCI-H292 xenograft (NSCLC model) in BALB/c nude mice; design: species or system Mus Musculus; details: 5 mg/kg; day 9; average
Experimental: (§1) The major endpoint was to see if the tumor growth could be delayed or mice could be cured. Tumor volume was measured three times weekly in two dimensions using a caliper, and the volume was expressed in mm^3 using the formula: V=0.5 a×b^2 where a and b are the long and short diameters of the tumor, respectively. The tumor size was then used for calculations of T/C value. The T/C value (in percent) is an indication of antitumor effectiveness; T and C are the mean volumes of the treated and control groups, respectively, on a given day. TGI was calculated for each group using the formula: TGI (%)=[1−(Ti−T0)/(Vi−V0)]×100; Ti is the average tumor volume of a treatment group on a given day, T0 is the average tumor volume of the treatment group on the day of treatment start, Vi is the average tumor volume of the vehicle control group on the same day with Ti, and V0 is the average tumor volume of the vehicle group on the day of treatment start.
(§2) A one-way ANOVA was performed to compare tumor volume among groups, and when a significant F-statistics (a ratio of treatment variance to the error variance) was obtained, comparisons between groups were carried out with Games-Howell test. All data were analyzed using GraphPad Prism 5.0. P<0.05 was considered to be statistically significant.
The NCI-H292 tumor cells will be maintained in medium supplemented with 10% heat inactivated fetal bovine serum at 37° C. in an atmosphere of 5% CO2 in air. The tumor cells will be routinely subcultured twice weekly. The cells growing in an exponential growth phase will be harvested and counted for tumor inoculation.
Each mouse will be inoculated subcutaneously at the right flank with NCI-H292 tumor cells (10×10^6) in 0.2 ml of PBS for tumor development. The animals will be randomized and treatment will be started when the average tumor volume reaches approximately 158-406 mm^3.

MDA-MB-468 xenograft [6] = assay: Example 9.4: in vivo efficacy in MDA-MB-468 xenograft in Balb/c nude mice; details: 5 mg/kg
Experimental: as §1, §2
• Species: Mus Musculus • Strain: Balb/c nude • Age: 6-8 weeks • Sex: female • Body weight: 18-22 g • Number of animals: 41 mice plus spare 3.1.2.
The tumor cells were maintained in Leibovitz's L-15 medium supplemented with 10% heat inactivated fetal bovine serum at 37° C. in an atmosphere of 5% CO2 in air. The tumor cells were routinely subcultured twice weekly. The cells growing in an exponential growth phase were harvested and counted for tumor inoculation.
41 animals were randomized when the average tumor volume reached 196 mm^3.

HCT116 xenograft = assay: Example 9.2: in vivo efficacy in HCT116 xenograft in Balb/c nude mice; design: species or system Mus Musculus; details: 3 mg/kg biw
MDA-MB-468 cell line = assay: Example 11: HCS assay, Nectin-4 BDC binding study; assay type: cell-based
Experimental: HCS assay was used in Nectin-4 BDC binding study. Cells were incubated with test agent and then washed. Detection was by a fluorescent antibody to MMAE.

## CC(=O)N[C@H]1CSCCC(=O)N2CN3CN(C2)C(=O)CCSC[C@H](NC(=O)[C@@H](CC(=O)O)NC(=O)[C@H](Cc2ccccc2)NC(=O)[C@@H]2CCCN2C1=O)C(=O)N[C@@H](CC(C)C)C(=O)N[C@@H](CCCCNC(=N)N)C(=O)N[C@@H](CC(N)=O)C(=O)N[C@@H](Cc1c[nH]c2ccccc12)C(=O)N[C@@H](CO)C(=O)N[C@@H]([C@@H](C)O)C(=O)N1CCC[C@H]1C(=O)N1CCC[C@H]1C(=O)N[C@@H](Cc1c[nH]c2ccccc12)C(=O)N[C@H](C(N)=O)CSCCC3=O [BCY8038, Ac-(SEQ ID NO: 160)] (Ac-CPF[dD]CL[hArg]NWSTPPWC-NH2; linker 1-5-15 via TATA; C-terminus assumed)
Human Nectin-4 [1]
  Ki: 8 nM
Human Nectin-4 [2]
  Kd: 44.5 nM

## CC(=O)N[C@H]1CSCCC(=O)N2CN3CN(C2)C(=O)CCSC[C@H](NC(=O)[C@H](CC(=O)O)NC(=O)[C@H](Cc2ccc(O)cc2)NC(=O)[C@H](CO)NC(=O)[C@H]([C@@H](C)O)NC(=O)[C@H]([C@@H](C)O)NC(=O)[C@H](C(C)C)NC1=O)C(=O)N[C@@H](Cc1c[nH]c2ccccc12)C(=O)N[C@@H](C(C)C)C(=O)N[C@@H]([C@@H](C)O)C(=O)N[C@@H](CC(C)C)C(=O)NCC(=O)N[C@@H](Cc1c[nH]cn1)C(=O)N[C@H](C(=O)N[C@@H](CO)C(=O)N[C@@H](CCCNC(=N)N)C(=O)N[C@@H](Cc1ccccc1)C(N)=O)CSCCC3=O [BCY7393, Ac-(SEQ ID NO: 37)-SRF] (Ac-CVTTSYDCWVTLGHCSRF-NH2; linker 1-8-15 via TATA; C-terminus assumed)
Human Nectin-4 [1]
  Ki: 232 nM
Human Nectin-4 [2]
  Kd: 1380 nM

## CC[C@H](C)[C@@H]1NC(=O)[C@@H]2CCCN2C(=O)[C@H](Cc2c[nH]c3ccccc23)NC(=O)[C@H](CO)NC(=O)[C@H](Cc2c[nH]c3ccccc23)NC(=O)[C@H](CC(N)=O)NC(=O)[C@H](CCCCN)NC(=O)[C@H](CCSC)NC(=O)[C@@H]2CSCCC(=O)N3CN(CN(C3)C(=O)CCSC[C@H](NC(=O)[C@H](C)N)C(=O)N3CCC[C@H]3C(=O)N[C@@H](Cc3ccccc3)C(=O)NCC(=O)N2)C(=O)CCSC[C@@H](C(=O)N[C@@H](C)C(N)=O)NC(=O)[C@H](Cc2c[nH]c3ccccc23)NC1=O [BCY428, A-(SEQ ID NO: 1)-A]
Human Nectin-4 [1]
  Ki: 61 nM
Human Nectin-4 [2]
  Kd: 334 nM

## CSCC[C@@H]1NC(=O)[C@@H]2CSCCC(=O)N3CN(CN(C3)C(=O)CCSC[C@H](NC(=O)CN(C)C(=O)CN(C)C(=O)CN(C)C(=O)CN(C)C(=O)CN(C)C(=O)CN(C)C(=O)CN(C)C(=O)CN(C)C(=O)CN(C)C(=O)CN(C)C(=O)CCNC(C)=O)C(=O)N3CCC[C@H]3C(=O)N[C@@H](Cc3cccc4ccccc34)C(=O)N[C@H](CC(=O)O)C(=O)N2)C(=O)CCSC[C@@H](C(N)=O)NC(=O)[C@H](Cc2c[nH]c3ccccc23)NC(=O)[C@@H]2C[C@@H](O)CN2C(=O)[C@@H]2CCCN2C(=O)[C@H]([C@@H](C)O)NC(=O)[C@H](CO)NC(=O)[C@H](Cc2c[nH]c3ccccc23)NC(=O)[C@H](CC(=O)O)NC(=O)[C@H](CS(=O)(=O)O)NC1=O [BCY8277, Ac-[B-Ala][Sar10]-(SEQ ID NO: 178)] (Ac-[βAla][Sar][Sar][Sar][Sar][Sar][Sar][Sar][Sar][Sar][Sar]CP[1Nal][dD]CM[Cya]DWSTP[Hyp]WC-NH2; linker 12-16-26 via TATA; C-terminus assumed)
Human Nectin-4 [2]
  Kd: 5.99 nM

## CC[C@H](C)[C@@H]([C@@H](CC(=O)N1CCC[C@H]1[C@H](OC)[C@@H](C)C(=O)N[C@H](C)[C@@H](O)c1ccccc1)OC)N(C)C(=O)[C@@H](NC(=O)[C@H](C(C)C)N(C)C(=O)OCc1ccc(NC(=O)[C@H](CCCNC(N)=O)NC(=O)[C@@H](NC(=O)CCCC(=O)NCCC(=O)N(C)CC(=O)N(C)CC(=O)N(C)CC(=O)N(C)CC(=O)N(C)CC(=O)N(C)CC(=O)N(C)CC(=O)N(C)CC(=O)N(C)CC(=O)N(C)CC(=O)N[C@H]2CSCCC(=O)N3CN4CN(C3)C(=O)CCSC[C@H](NC(=O)[C@@H](CCCNC(=N)N)NC(=O)[C@H](Cc3cccc5ccccc35)NC(=O)[C@@H]3CCCN3C2=O)C(=O)N[C@@H](CC(C)C)C(=O)N[C@@H](CCCCNC(=N)N)C(=O)N[C@@H](Cc2c[nH]cn2)C(=O)N[C@@H](Cc2c[nH]c3ccccc23)C(=O)N[C@@H](CO)C(=O)N[C@@H]([C@@H](C)O)C(=O)N2CCC[C@H]2C(=O)N2C[C@H](O)C[C@H]2C(=O)N[C@@H](Cc2c[nH]c3ccccc23)C(=O)N[C@H](C(N)=O)CSCCC4=O)C(C)C)cc1)C(C)C [BCY8253, MMAE-PABC-Cit-Val-Glutaryl-BCY8231] (I: [Sar][Sar][Sar][Sar][Sar][Sar][Sar][Sar][Sar][Sar]CP[1Nal][dR]CL[hArg]HWSTP[Hyp]WC-NH2 / II: V[Cit][PABC][NMeV]V[Dil][Dolaproine]-X4; linker I:11-I:15-I:25 via TATA; linker I:N-II:N via X3)
NCI-H292 xenograft [3]
  bodyweight loss: > 15%
MDA-MB-468 xenograft [4]
  animal body weight (in words): severe animal body weight loss
  death: found dead on day 20
NCI-H292 xenograft [5]
  bodyweight loss: > 15%
MDA-MB-468 xenograft [6]
  animal body weight (in words): severe animal body weight loss
  death: found dead on day 20
HCT116 xenograft
  bodyweight loss: 15%

## CC[C@H](C)[C@@H]1NC(=O)[C@@H]2CCCN2C(=O)[C@H](Cc2c[nH]c3ccccc23)NC(=O)[C@H](CO)NC(=O)[C@H](Cc2c[nH]c3ccccc23)NC(=O)[C@H](CC(N)=O)NC(=O)[C@H](CCCCN)NC(=O)[C@H](CCSC)NC(=O)[C@@H]2CSCCC(=O)N3CN(CN(C3)C(=O)CCSC[C@H](NC(C)=O)C(=O)N3CCC[C@H]3C(=O)N[C@@H](Cc3ccccc3)C(=O)NCC(=O)N2)C(=O)CCSC[C@@H](C(=O)N[C@H](C(=O)N[C@@H](CC(N)=O)C(=O)N[C@@H](CCCCN)C(N)=O)[C@@H](C)O)NC(=O)[C@H](Cc2c[nH]c3ccccc23)NC1=O [BCY7391, Ac-(SEQ ID NO: 1)-TNK] (Ac-CPFGCMKNWSWPIWCTNK-NH2; linker 1-5-15 via TATA; C-terminus assumed)
Human Nectin-4 [1]
  Ki: 13.3 nM
Human Nectin-4 [2]
  Kd: 59.8 nM

## CC[C@H](C)[C@@H]1NC(=O)[C@@H]2CCCN2C(=O)[C@H](Cc2c[nH]c3ccccc23)NC(=O)[C@H](CO)NC(=O)[C@H](Cc2c[nH]c3ccccc23)NC(=O)[C@H](CC(N)=O)NC(=O)[C@H](CCCCN)NC(=O)[C@H](CCSC)NC(=O)[C@@H]2CSCCC(=O)N3CN(CN(C3)C(=O)CCSC[C@H](NC(C)=O)C(=O)N3CCC[C@H]3C(=O)N[C@@H](Cc3ccccc3)C(=O)NCC(=O)N2)C(=O)CCSC[C@@H](C(N)=O)NC(=O)[C@H](Cc2c[nH]c3ccccc23)NC1=O [BCY7390, Ac-(SEQ ID NO: 1)] (Ac-CPFGCMKNWSWPIWC-NH2; linker 1-5-15 via TATA; C-terminus assumed)
Human Nectin-4 [1]
  Ki: 17.1 nM
Human Nectin-4 [2]
  Kd: 40.3 nM

## CC[C@H](C)[C@@H]([C@@H](CC(=O)N1CCC[C@H]1[C@H](OC)[C@@H](C)C(=O)N[C@H](C)[C@@H](O)c1ccccc1)OC)N(C)C(=O)[C@@H](NC(=O)[C@@H](NC)C(C)C)C(C)C [MMAE, Monomethyl auristatin E, reference compound] (H-[NMeV]V[Dil][Dolaproine]-X4)
MDA-MB-468 cell line
  binding affinity on MDA-MB-468 cell line (in words): almost no detectable binding affinity
MDA-MB-468 cell line; MDA-MB-468 cell line, fluorescent antibody to MMAE
  Max fluorescent intensity: 2.95
MDA-MB-468 cell line; MDA-MB-468 cell line, historical data, read-out: Historical Kd
  Kd: > 10000 nM
MDA-MB-468 cell line; MDA-MB-468 cell line, read-out: Kd
  Kd: > 10000 nM
MDA-MB-468 cell line; detection by a fluorescent antibody to MMAE
  retention on the cells (in words): minimal retention
